Measurements reported in PMC10766964, “Copper-catalyzed synthesis of pyrazolo[1,5-a]pyrimidine based triazole-linked glycohybrids: mechanistic insights and bio-applications” (Scientific Reports, 2024).

Tested on: MCF-7 (hormone receptor/HR-positive breast cancer cells)
Test: MTT cell viability assay in MCF-7 cells
Format: cell-based
Conditions: Homo sapiens, MCF7, read-out: Cell viability (%) ± SD; for viability at 1 µM: MCF-7, 1 µM; for viability at 10 µM: MCF-7, 10 µM; for viability at 25 µM: MCF-7, 25 µM
Procedure: MDA-MB-231 represents a specific subtype known as triple-negative breast cancer (TNBC). The investigation study was extended with active six hit compounds (9a, 9d, 9h, 10d, 10f, and 11g) in two other different cancer cell lines (MCF-7 and MDA-MB-453), each representing a separate class of breast cancers (MCF-7: hormone receptor/HR-positive; MDA-MB-453: human epidermal growth factor 2 receptor/HER2 positive).
We also included normal mammary epithelial MCF-10A cells in our experiments to confirm if the growth-inhibitory activities of the selected compounds are truly cancer cell-specific. The activity data from MCF-7 and MDA-MB-453 cell lines (tested at 1 µM, 10 µM and 25 µM) and activity data from MCF-10A cell line (tested at 25 µM, 50 µM and 100 µM) are summarized in Table 3.
To evaluate cell viability, the MTT assay was conducted following standard procedures. After 72 h of cell incubation with or without each compound, cell viability was assessed using MTT (3-(4,5-dimethylthiazol-2-yl)-2,5-diphenyltetrazolium bromide), which is a colorimetric method for determining the number of viable cells in various assays including proliferation, cytotoxicity, or chemosensitivity. The MTT reagent was added to the cells after removal of the medium and incubated for 3 h at 37 °C in the CO2 incubator. The formazan product, which is […] in the tissue culture medium, was dissolved in DMSO, and the absorbance of the formazan product was directly measured at 595 nm using a multimode plate reader without additional processing. The absorbance values are directly proportional to the number of viable cells in culture. The percentage of viable cells in each group was determined relative to the untreated control cells.

SMILES | viability at 1 µM | viability at 10 µM | viability at 25 µM
CC(=O)OC[C@H]1O[C@@H](n2cc(COc3cc(-c4ccc(Cl)cc4)nc4ccnn34)nn2)[C@H](OC(C)=O)[C@@H](OC(C)=O)[C@@H]1OC(C)=O [Compound 9d, (2R,3R,4S,5R,6R)-2-(acetoxymethyl)-6-(4-(((5-(4-chlorophenyl)pyrazolo[1,5-a]pyrimidin-7-yl)oxy)methyl)-1H-1,2,3-triazol-1-yl)tetrahydro-2H-pyran-3,4,5-triyl triacetate] | 100 ± 4.5% | 69.8 ± 1.8% | 62.8 ± 3%
CC(=O)OC[C@H]1O[C@@H](n2cc(COc3cc(-c4ccc(C(F)(F)F)cc4)nc4ccnn34)nn2)[C@H](OC(C)=O)[C@@H](OC(C)=O)[C@H]1OC(C)=O [Compound 10f, (2R,3S,4S,5R,6R)-2-(acetoxymethyl)-6-(4-(((5-(4-(trifluoromethyl)phenyl)pyrazolo[1,5-a]pyrimidin-7-yl)oxy)methyl)-1H-1,2,3-triazol-1-yl)tetrahydro-2H-pyran-3,4,5-triyl triacetate] | 51.3 ± 3.1% | 28.4 ± 0.9% | 21.1 ± 4.4%
CC(=O)OC[C@H]1O[C@@H](n2cc(COc3cc(-c4ccc5ccccc5c4)nc4ccnn34)nn2)[C@H](OC(C)=O)[C@@H](OC(C)=O)[C@@H]1OC(C)=O [Compound 9h, (2R,3R,4S,5R,6R)-2-(acetoxymethyl)-6-(4-(((5-(naphthalen-2-yl)pyrazolo[1,5-a]pyrimidin-7-yl)oxy)methyl)-1H-1,2,3-triazol-1-yl)tetrahydro-2H-pyran-3,4,5-triyl triacetate] | 79.2 ± 2.6% | 58.7 ± 2.4% | 42.3 ± 7.6%
CC(=O)OC[C@H]1O[C@@H](n2cc(COc3cc(-c4ccc(C)cc4)nc4ccnn34)nn2)[C@H](OC(C)=O)[C@@H](OC(C)=O)[C@@H]1OC(C)=O [Compound 9a, (2R,3R,4S,5R,6R)-2-(acetoxymethyl)-6-(4-(((5-(p-tolyl)pyrazolo[1,5-a]pyrimidin-7-yl)oxy)methyl)-1H-1,2,3-triazol-1-yl)tetrahydro-2H-pyran-3,4,5-triyl triacetate] | 68.7 ± 1.18% | 41.3 ± 3.6% | 21.7 ± 4%
CC(=O)OC[C@H]1O[C@H](n2cc(COc3cc(-c4ccc(C(C)C)cc4)nc4ccnn34)nn2)[C@@H](OC(C)=O)[C@@H](OC(C)=O)[C@@H]1OC(C)=O [Compound 11g, (2R,3R,4S,5S,6S)-2-(acetoxymethyl)-6-(4-(((5-(4-isopropylphenyl)pyrazolo[1,5-a]pyrimidin-7-yl)oxy)methyl)-1H-1,2,3-triazol-1-yl)tetrahydro-2H-pyran-3,4,5-triyl triacetate] | 70.8 ± 4.2% | 68.2 ± 3.8% | 49.1 ± 3.5%
CC(=O)OC[C@H]1O[C@@H](n2cc(COc3cc(-c4ccc(Cl)cc4)nc4ccnn34)nn2)[C@H](OC(C)=O)[C@@H](OC(C)=O)[C@H]1OC(C)=O [Compound 10d, (2R,3S,4S,5R,6R)-2-(acetoxymethyl)-6-(4-(((5-(4-chlorophenyl)pyrazolo[1,5-a]pyrimidin-7-yl)oxy)methyl)-1H-1,2,3-triazol-1-yl)tetrahydro-2H-pyran-3,4,5-triyl triacetate] | 66 ± 4.7% | 34 ± 2.5% | 20 ± 2.9%
